The test addresses human LPAR1 (Homo sapiens (Human), UniProt Q92633). The experiment in a line: LPAR1 intracellular calcium mobilization assay (antagonist mode, FLIPR). The format is cell-based. To be noted: CHO-K1 EDG2 cells expressing human LPAR1, LPA 18:2 at EC80 (100 nM), test compound 0.5 nM to 10 μM.

Sequence of human LPAR1 (Q92633 whole entry): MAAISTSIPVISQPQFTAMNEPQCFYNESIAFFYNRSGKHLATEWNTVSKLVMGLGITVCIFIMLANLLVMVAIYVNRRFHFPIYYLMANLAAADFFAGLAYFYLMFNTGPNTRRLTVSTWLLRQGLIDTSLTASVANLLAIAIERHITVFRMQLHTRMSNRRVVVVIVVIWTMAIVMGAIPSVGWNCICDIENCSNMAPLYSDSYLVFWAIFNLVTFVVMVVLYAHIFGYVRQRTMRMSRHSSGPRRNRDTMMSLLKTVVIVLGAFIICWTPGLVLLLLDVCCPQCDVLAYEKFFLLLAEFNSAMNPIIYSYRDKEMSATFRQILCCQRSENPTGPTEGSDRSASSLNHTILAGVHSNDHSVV

As to `C[C@@H](OC(=O)Nc1c(-c2ncc(NC(=O)C34CC(C#N)(C3)C4)cc2F)nnn1C)c1cc(F)cnc1F` [Compound 337, (R)-1-(2,5-difluoropyridin-3-yl)ethyl (4-(5-(3-cyanobicyclo[1.1.1]pentane-1-carboxamido)-3-fluoropyridin-2-yl)-1-methyl-1H-1,2,3-triazol-5-yl)carbamate], the EC50 turned out to be 163 nM. As for `C[C@@H](OC(=O)Nc1c(-c2ncc(NC(=O)c3ccc(Cl)nc3)cc2F)nnn1C)c1cc(F)cnc1F` [Compound 338, (R)-1-(2,5-difluoropyridin-3-yl)ethyl (4-(5-(6-chloronicotinamido)-3-fluoropyridin-2-yl)-1-methyl-1H-1,2,3-triazol-5-yl)carbamate], the EC50 was 132 nM.

Values taken from patent US11912686B2 (Gilead Sciences, Inc., priority 2020, dated 2024).
